From ChEMBL document CHEMBL1201861, “Genomics of Drug Sensitity in Cancer screening data, Wellcome Trust Sanger Institute”

How the values were obtained:
Assay in all cases: cells
KU812 cell line = assay type: functional, cell-based; conditions: Homo sapiens;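 note: growth inhibition of KU812 cells, read out with a cell viability assay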
Description: SANGER: Inhibition of human KU812 cell growth in a cell viability assay.

SNB-75 = assay type: functional, cell-based, Homo sapiens; conditions: Homo sapiens, SNB-75;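 note: cell viability assay measuring growth inhibition of human SNB-75 cells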
Description: SANGER: Inhibition of human SNB75 cell growth in a cell viability assay.

BFTC-909 = assay type: functional, cell-based, Homo sapiens; conditions: Homo sapiens, BFTC-909
Description: SANGER: Inhibition of human BFTC-909 cell growth in a cell viability assay.

NCI-H1993 = assay type: functional, cell-based, Homo sapiens; conditions: Homo sapiens, NCI-H1993;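 note: growth inhibition of the cancer cell line, assessed with a cell viability assay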
Description: SANGER: Inhibition of human NCI-H1993 cell growth in a cell viability assay.

MHH-PREB-1 = assay type: functional, cell-based; conditions: Homo sapiens;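 note: cell viability assay measuring inhibition of proliferation of human MHH-PREB-1 cells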
Description: SANGER: Inhibition of human MHH-PREB-1 cell growth in a cell viability assay.

HCT-116 = assay type: functional, cell-based, Homo sapiens; conditions: Homo sapiens, HCT-116
Description: SANGER: Inhibition of human HCT-116 cell growth in a cell viability assay.

DSH1 = assay type: functional, cell-based, Homo sapiens; conditions: Homo sapiens, DSH1;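 note: growth inhibition of human DSH1 cells, measured with a cell viability readout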
Description: SANGER: Inhibition of human DSH1 cell growth in a cell viability assay.

SNU1 = assay type: functional, cell-based; conditions: Homo sapiens;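 note: growth inhibition of human NCI-SNU-1 cells, measured with a cell viability assay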
Description: SANGER: Inhibition of human NCI-SNU-1 cell growth in a cell viability assay.

VM-CUB-1 = assay type: functional, cell-based; conditions: Homo sapiens;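 note: cell viability assay measuring growth inhibition of the human VM-CUB-1 cell line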
Description: SANGER: Inhibition of human VM-CUB-1 cell growth in a cell viability assay.

MFE-280 = assay type: functional, cell-based, Homo sapiens; conditions: Homo sapiens, MFE-280;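 note: growth inhibition of MFE-280 cells, determined with a cell viability readout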
Description: SANGER: Inhibition of human MFE-280 cell growth in a cell viability assay.

SBC-5 = assay type: functional, cell-based, Homo sapiens; conditions: Homo sapiens, SBC-5;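 note: cell viability assay read-out, IC50 is the concentration that inhibits growth of the cells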
Description: SANGER: Inhibition of human SBC-5 cell growth in a cell viability assay.

CHP-212 = assay type: functional, cell-based, Homo sapiens; conditions: Homo sapiens, CHP-212
Description: SANGER: Inhibition of human CHP-212 cell growth in a cell viability assay.

L-428 = assay type: functional, cell-based; conditions: Homo sapiens
Description: SANGER: Inhibition of human L-428 cell growth in a cell viability assay.

JEG-3 = assay type: functional, cell-based, Homo sapiens; conditions: Homo sapiens, JEG-3;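 note: growth inhibition of human JEG-3 cells, read out with a cell viability assay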
Description: SANGER: Inhibition of human JEG-3 cell growth in a cell viability assay.

LB2241-RCC = assay type: functional, cell-based, Homo sapiens; conditions: Homo sapiens, LB2241-RCC;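 note: cell viability assay measuring how strongly the cultured human renal carcinoma line is prevented from growing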
Description: SANGER: Inhibition of human LB2241-RCC cell growth in a cell viability assay.

SW1573 = assay type: functional, cell-based, Homo sapiens; conditions: Homo sapiens, SW1573;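 note: growth inhibition of SW1573 cells, read out with a cell viability assay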
Description: SANGER: Inhibition of human SW1573 cell growth in a cell viability assay.

NCI-H1623 = assay type: functional, cell-based, Homo sapiens; conditions: Homo sapiens, NCI-H1623;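 note: cell viability assay used as the read-out for growth inhibition of NCI-H1623 cells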
Description: SANGER: Inhibition of human NCI-H1623 cell growth in a cell viability assay.

SJSA-1 = assay type: functional, cell-based, Homo sapiens; conditions: Homo sapiens, SJSA-1;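 note: growth inhibition of human SJSA-1 cells, read out through a cell viability measurement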
Description: SANGER: Inhibition of human SJSA-1 cell growth in a cell viability assay.

LB996-RCC = assay type: functional, cell-based; conditions: Homo sapiens
Description: SANGER: Inhibition of human LB996-RCC cell growth in a cell viability assay.

NCI-H226 = assay type: functional, cell-based, Homo sapiens; conditions: Homo sapiens, NCI-H226;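 note: cell viability read-out used to gauge growth inhibition of the cells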
Description: SANGER: Inhibition of human NCI-H226 cell growth in a cell viability assay.

SW13 = assay type: functional, cell-based, Homo sapiens; conditions: Homo sapiens, SW13;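 note: IC50 is inhibition of SW13 cell growth, read out with a cell viability assay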
Description: SANGER: Inhibition of human SW13 cell growth in a cell viability assay.

KYSE-150 cell line = assay type: functional, cell-based, Homo sapiens; conditions: Homo sapiens, KYSE-150;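 note: growth inhibition of human KYSE-150 cells, read out with a cell viability assay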
Description: SANGER: Inhibition of human KYSE-150 cell growth in a cell viability assay.

LOX IMVI = assay type: functional, cell-based; conditions: Homo sapiens
Description: SANGER: Inhibition of human LOXIMVI cell growth in a cell viability assay.

M14 = assay type: functional, cell-based, Homo sapiens; conditions: Homo sapiens, M14;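 note: growth inhibition of M14 cells, read out with a cell viability assay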
Description: SANGER: Inhibition of human M14 cell growth in a cell viability assay.

CAL-54 = assay type: functional, cell-based, Homo sapiens; conditions: Homo sapiens, CAL-54;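 note: growth inhibition of CAL-54 cells, read out by a viability measurement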
Description: SANGER: Inhibition of human CAL-54 cell growth in a cell viability assay.

OVCAR-3 = assay type: functional, cell-based, Homo sapiens; conditions: Homo sapiens, OVCAR-3;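 note: growth inhibition of human OVCAR-3 cells, determined by a cell viability assay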
Description: SANGER: Inhibition of human OVCAR-3 cell growth in a cell viability assay.

KM12 = assay type: functional, cell-based, Homo sapiens; conditions: Homo sapiens, KM12;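 note: KM12 cell growth inhibition, read out with a cell viability assay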
Description: SANGER: Inhibition of human KM12 cell growth in a cell viability assay.

HN = assay type: functional, cell-based, Homo sapiens; conditions: Homo sapiens, HN
Description: SANGER: Inhibition of human HN cell growth in a cell viability assay.

HT-1080 = assay type: functional, cell-based, Homo sapiens; conditions: Homo sapiens, HT-1080
Description: SANGER: Inhibition of human HT-1080 cell growth in a cell viability assay.

DMS-114 = assay type: functional, cell-based, Homo sapiens; conditions: Homo sapiens, DMS-114
SCH = assay type: functional, cell-based, Homo sapiens; conditions: Homo sapiens, SCH;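 note: growth inhibition of human SCH cells, read out in a cell viability assay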
Description: SANGER: Inhibition of human SCH cell growth in a cell viability assay.

Lu-65 = assay type: functional, cell-based; conditions: Homo sapiens;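 note: growth inhibition of Lu-65 cancer cells, read out by a cell viability assay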
Description: SANGER: Inhibition of human LU-65 cell growth in a cell viability assay.

TCC-SUP = assay type: functional, cell-based, Homo sapiens; conditions: Homo sapiens, TCC-SUP;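 note: growth inhibition of TCC-SUP cells, read out with a cell viability assay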
Description: SANGER: Inhibition of human TCCSUP cell growth in a cell viability assay.

BV-173 = assay type: functional, cell-based; conditions: Homo sapiens
Description: SANGER: Inhibition of human BV-173 cell growth in a cell viability assay.

NUGC-3 = assay type: functional, cell-based, Homo sapiens; conditions: Homo sapiens, NUGC-3;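 note: growth inhibition of human NUGC-3 cells, read out with a cell viability assay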
Description: SANGER: Inhibition of human NUGC-3 cell growth in a cell viability assay.

no-10 = assay type: functional, cell-based, Homo sapiens; conditions: Homo sapiens;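 note: growth inhibition of no-10 cells, read out with a cell viability assay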
Description: SANGER: Inhibition of human no-10 cell growth in a cell viability assay.

SW1990 = assay type: functional, cell-based, Homo sapiens; conditions: Homo sapiens, SW1990;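 note: cell growth inhibition determined with a viability assay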
Description: SANGER: Inhibition of human SW1990 cell growth in a cell viability assay.

MDA-MB-157 = assay type: functional, cell-based, Homo sapiens; conditions: Homo sapiens, MDA-MB-157
Description: SANGER: Inhibition of human MDA-MB-157 cell growth in a cell viability assay.

MZ2-MEL = assay type: functional, cell-based, Homo sapiens; conditions: Homo sapiens, MZ2-MEL;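 note: growth inhibition of MZ2-MEL cells read out with a cell viability assay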
Description: SANGER: Inhibition of human MZ2-MEL cell growth in a cell viability assay.

C32 = assay type: functional, cell-based, Homo sapiens; conditions: Homo sapiens, C32;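 note: cell viability assay, with IC50 reflecting inhibition of C32 cell growth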
Description: SANGER: Inhibition of human C32 cell growth in a cell viability assay.

SK-MEL-2 = assay type: functional, cell-based, Homo sapiens; conditions: Homo sapiens, SK-MEL-2;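 note: growth inhibition of human SK-MEL-2 cells measured with a cell viability assay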
Description: SANGER: Inhibition of human SK-MEL-2 cell growth in a cell viability assay.

ES7 = assay type: functional, cell-based, Homo sapiens; conditions: Homo sapiens, ES7;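 note: growth inhibition of cultured human ES7 cells, read out as cell viability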
Description: SANGER: Inhibition of human ES7 cell growth in a cell viability assay.

ES4 = assay type: functional, cell-based, Homo sapiens; conditions: Homo sapiens, ES4;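 note: growth inhibition of human ES4 cells, read out by a cell viability assay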
Description: SANGER: Inhibition of human ES4 cell growth in a cell viability assay.

NCI-H661 = assay type: functional, cell-based, Homo sapiens; conditions: Homo sapiens, NCI-H661;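 note: cell viability assay read-out, IC50 being the concentration that inhibits growth of the cells by half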
Description: SANGER: Inhibition of human NCI-H661 cell growth in a cell viability assay.

KALS-1 = assay type: functional, cell-based, Homo sapiens; conditions: Homo sapiens, KALS-1;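 note: growth inhibition of KALS-1 cells, determined with a cell viability assay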
Description: SANGER: Inhibition of human KALS-1 cell growth in a cell viability assay.

VMRC-RCZ = assay type: functional, cell-based; conditions: Homo sapiens;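 note: growth inhibition measured with a cell viability assay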
Description: SANGER: Inhibition of human VMRC-RCZ cell growth in a cell viability assay.

CHL-1 = assay type: functional, cell-based, Homo sapiens; conditions: Homo sapiens, CHL-1;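 note: cell growth inhibition, read out with a cell viability assay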
Description: SANGER: Inhibition of human CHL-1 cell growth in a cell viability assay.

TGW = assay type: functional, cell-based; conditions: Homo sapiens;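 note: growth inhibition of human TGW cells, read out with a cell viability assay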
Description: SANGER: Inhibition of human TGW cell growth in a cell viability assay.

RCC10RGB = assay type: functional, cell-based, Homo sapiens; conditions: Homo sapiens, RCC10RGB;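 note: growth inhibition of human RCC10RGB cells, read out by a cell viability assay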
Description: SANGER: Inhibition of human RCC10RGB cell growth in a cell viability assay.

no-11 = assay type: functional, cell-based, Homo sapiens; conditions: Homo sapiens;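 note: growth inhibition of human NO-11 cells, read out with a cell viability assay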
Description: SANGER: Inhibition of human no-11 cell growth in a cell viability assay.

NCI-H82 = assay type: functional, cell-based; conditions: Homo sapiens;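 note: growth inhibition of NCI-H82 cells, measured with a cell viability readout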
Description: SANGER: Inhibition of human NCI-H82 cell growth in a cell viability assay.

HuCCT-1 = assay type: functional, cell-based, Homo sapiens, HuCCT1; conditions: Homo sapiens, HuCCT-1;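 note: growth inhibition of HuCCT-1 cells, read out by a cell viability assay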
Description: SANGER: Inhibition of human HuCCT1 cell growth in a cell viability assay.

O=C1N=C(NCc2cccs2)S/C1=C\c1ccc2ncccc2c1
IC50 (KU812 cell line): > 5 µM
IC50 (SNB-75): > 5 µM
IC50 (BFTC-909): > 5 µM
IC50 (NCI-H1993): > 5 µM
IC50 (MHH-PREB-1): > 5 µM
IC50 (HCT-116): > 5 µM
IC50 (DSH1): > 5 µM
IC50 (SNU1): 0.731 µM
IC50 (VM-CUB-1): > 5 µM
IC50 (MFE-280): > 5 µM
IC50 (SBC-5): > 5 µM
IC50 (CHP-212): > 5 µM
IC50 (L-428): > 5 µM
IC50 (JEG-3): > 5 µM
IC50 (LB2241-RCC): > 5 µM
IC50 (SW1573): > 5 µM
IC50 (NCI-H1623): > 5 µM
IC50 (SJSA-1): > 5 µM
IC50 (LB996-RCC): > 5 µM
IC50 (NCI-H226): > 5 µM
IC50 (SW13): > 5 µM
IC50 (KYSE-150 cell line): > 5 µM
IC50 (LOX IMVI): > 5 µM
IC50 (M14): > 5 µM
IC50 (CAL-54): > 5 µM
IC50 (OVCAR-3): > 5 µM
IC50 (KM12): > 5 µM
IC50 (HN): > 5 µM
IC50 (HT-1080): > 5 µM
IC50 (DMS-114): > 5 µM
IC50 (SCH): > 5 µM
IC50 (Lu-65): > 5 µM
IC50 (TCC-SUP): > 5 µM
IC50 (BV-173): > 5 µM
IC50 (NUGC-3): > 5 µM
IC50 (no-10): > 5 µM
IC50 (SW1990): > 5 µM
IC50 (MDA-MB-157): > 5 µM
IC50 (MZ2-MEL): > 5 µM
IC50 (C32): > 5 µM
IC50 (SK-MEL-2): > 5 µM
IC50 (ES7): > 5 µM
IC50 (ES4): > 5 µM
IC50 (NCI-H661): > 5 µM
IC50 (KALS-1): > 5 µM
IC50 (VMRC-RCZ): > 5 µM
IC50 (CHL-1): > 5 µM
IC50 (TGW): > 5 µM
IC50 (RCC10RGB): > 5 µM
IC50 (no-11): > 5 µM
IC50 (NCI-H82): > 5 µM
IC50 (HuCCT-1): > 5 µM

COC(=O)CNC(=O)C(=O)OC
IC50 (KU812 cell line): 28.5 µM
IC50 (SNB-75): 438 µM
IC50 (BFTC-909): 252 µM
IC50 (NCI-H1993): 331 µM
IC50 (MHH-PREB-1): 137 µM
IC50 (HCT-116): 658 µM
IC50 (DSH1): 96.2 µM
IC50 (SNU1): > 4000 µM
IC50 (VM-CUB-1): 151 µM
IC50 (MFE-280): 1030 µM
IC50 (SBC-5): 1390 µM
IC50 (CHP-212): 181 µM
IC50 (L-428): 688 µM
IC50 (JEG-3): 908 µM
IC50 (LB2241-RCC): 537 µM
IC50 (SW1573): 2520 µM
IC50 (NCI-H1623): 117 µM
IC50 (SJSA-1): 278 µM
IC50 (LB996-RCC): 6.59 µM
IC50 (NCI-H226): > 4000 µM
IC50 (SW13): 639 µM
IC50 (KYSE-150 cell line): 1330 µM
IC50 (LOX IMVI): 344 µM
IC50 (M14): 1860 µM
IC50 (CAL-54): 1250 µM
IC50 (OVCAR-3): 206 µM
IC50 (KM12): 2240 µM
IC50 (HN): 1030 µM
IC50 (HT-1080): 421 µM
IC50 (DMS-114): > 4000 µM
IC50 (SCH): > 4000 µM
IC50 (Lu-65): 2360 µM
IC50 (TCC-SUP): 432 µM
IC50 (BV-173): 234 µM
IC50 (NUGC-3): 1480 µM
IC50 (no-10): 995 µM
IC50 (SW1990): 441 µM
IC50 (MDA-MB-157): 566 µM
IC50 (MZ2-MEL): 478 µM
IC50 (C32): > 4000 µM
IC50 (SK-MEL-2): 1960 µM
IC50 (ES7): 478 µM
IC50 (ES4): 1150 µM
IC50 (NCI-H661): 2280 µM
IC50 (KALS-1): 624 µM
IC50 (VMRC-RCZ): 1960 µM
IC50 (CHL-1): 917 µM
IC50 (TGW): > 4000 µM
IC50 (RCC10RGB): 1040 µM
IC50 (no-11): 208 µM
IC50 (NCI-H82): > 4000 µM
IC50 (HuCCT-1): 211 µM
